Molecular target: 20S proteasome (chymotrypsin-like activity) (Homo sapiens, UniProt P28074)
Assay: fluorogenic Suc-LLVY-AMC peptidase assay with purified […] proteasome
Type: biochemical

Chain of 20S proteasome (chymotrypsin-like activity) (P28074 60-263): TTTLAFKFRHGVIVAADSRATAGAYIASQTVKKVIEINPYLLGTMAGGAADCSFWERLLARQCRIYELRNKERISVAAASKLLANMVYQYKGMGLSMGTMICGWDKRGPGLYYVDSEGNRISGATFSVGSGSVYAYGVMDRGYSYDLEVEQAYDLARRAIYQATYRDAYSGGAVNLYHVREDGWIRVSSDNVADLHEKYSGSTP

`CC(C)=CC[C@]12Oc3cc(O)c([C@H]4C=C(C)C[C@H](c5ccc(O)cc5O)[C@H]4C(=O)c4ccc(O)cc4O)c(O)c3C(=O)[C@@]1(O)Oc1cc(O)ccc12` [Sanggenon C] showed an IC50 of 4 µM.

Reference: PMC3303154 (2011)
